Test [1] has as its system ORA48 PZA-resistant strain with mutation in panD gene. It is filed as cell-based, Mycobacterium tuberculosis.
Test [2] relates to ORA76 PZA-resistant strain with mutation in panD gene. It is filed as cell-based, Mycobacterium tuberculosis.
In test [3] the test system is Z186 PZA-resistant strain with mutation in pncA gene. It is filed as cell-based, Mycobacterium tuberculosis.
The test system of test [4] is M. tuberculosis PZA-resistant strains #6, #78, #98, #106, #186. Type of test: cell-based. Conditions: PZA-S1-Plus agar, pH 6.8, 400, 800 and 1600 μg PZA.
In test [5] the test system is PZA-resistant strain (PZA^R) (#6 PncA mutation L159P). Type of test: cell-based, Mycobacterium tuberculosis. As to conditions: pH 6.8.
The test system of test [6] is Z6 PZA-resistant strain with mutation in pncA gene. It is filed as cell-based, Mycobacterium tuberculosis.
In test [7] the test system is ORA136 PZA-resistant strain with mutation in panD gene. Type of test: cell-based, Mycobacterium tuberculosis.
The test system of test [8] is Z98 PZA-resistant strain with mutation in pncA gene. It is filed as cell-based, Mycobacterium tuberculosis.
In test [9] the test system is five PZA resistant M. tuberculosis strains. Kind of test: microbe, parasite or virus in culture. It is filed as cell-based. Conditions: Mycobacterium tuberculosis, 504 h, pH 6.8, read-out: MIC for PZA.

Several values for one entry are separate records, joined by “and”; a condition that tells them apart may be missing. Identical values can stand only once.

For `NC(=O)c1cnccn1` [PZA, Pyrazinamide], the “MIC of PZA” value in test [1], in test [2], in test [3], in test [6], in test [7] and in test [8] was “greater than 300 μg/ml” each time. In addition, the “Percentage of CFU to Z 0” value in test [1] is 3.74% and 3.48% and 3.39% and 3.00%; in test [2], 2.26% and 1.83% and 2.33% and 2.31%; in test [3] it was 1.07% and 1.09% and 1.01% and 1.08%; in [6], 9.33% and 10.00% and 8.65% and 12.47%; in test [7], 3.70% and 4.19% and 3.37% and 2.56%; in test [8] it was 6.76% and 6.62% and 5.15% and 5.81%. The “growth inhibition, paper disk” value in test [4] is recorded as “no inhibition”. In test [5], the “PZA concentration at which the resistant strain grew” value stood at 800 µg/mL. Also, the MIC in test [9] is more than 800 µg/mL.

Values taken from US20240148723A1, “MYCOBACTERIUM TUBERCULOSIS COMPOSITIONS AND METHODS” (priority 2021, published 2024).
